Experimental findings from patent US11440898B2, “Isoquinoline compounds, methods for their preparation, and therapeutic uses thereof in conditions associated with the alteration of the activity of beta galactosidase” (Minoryx Therapeutics S.L., priority 2016, dated 2022) are described below.

The experiment concerns the target T1, mutated beta-galactosidase (p.R60H canine GLB1) in GM11473 fibroblasts (Canis lupus familiaris, UniProt Q9TRY9, R60H).
T1 construct: host or cells: GM11473 canine GM1 gangliosidosis fibroblasts
T1 sequence (Q9TRY9 30-668 R60H): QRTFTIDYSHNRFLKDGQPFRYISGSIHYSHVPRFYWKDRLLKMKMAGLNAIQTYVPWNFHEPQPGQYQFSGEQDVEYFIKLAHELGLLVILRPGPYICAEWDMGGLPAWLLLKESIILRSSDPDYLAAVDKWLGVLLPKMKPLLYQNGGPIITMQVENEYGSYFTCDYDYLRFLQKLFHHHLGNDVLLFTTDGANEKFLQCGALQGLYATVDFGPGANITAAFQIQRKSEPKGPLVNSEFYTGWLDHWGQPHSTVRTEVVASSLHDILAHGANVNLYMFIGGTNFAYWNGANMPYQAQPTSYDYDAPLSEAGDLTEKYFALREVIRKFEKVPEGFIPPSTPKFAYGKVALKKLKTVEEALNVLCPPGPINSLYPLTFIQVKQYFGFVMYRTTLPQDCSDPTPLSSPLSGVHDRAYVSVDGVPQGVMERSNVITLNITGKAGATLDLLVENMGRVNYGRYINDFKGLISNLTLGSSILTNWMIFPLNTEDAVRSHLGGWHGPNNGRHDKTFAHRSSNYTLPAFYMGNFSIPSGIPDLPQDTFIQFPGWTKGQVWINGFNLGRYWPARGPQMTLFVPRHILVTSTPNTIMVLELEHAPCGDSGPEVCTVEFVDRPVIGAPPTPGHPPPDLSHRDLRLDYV
Nature of the experiment: Enhancement of β-galactosidase activity measured in GM1 fibroblasts (GM11473), 4-MU-β-D-galactopyranoside substrate. It is filed as cell-based. On the set-up: key: Increase in comparison with non-treated of >2.5 fold is shown as A; Increase in comparison with non-treated of >1.7-2.5 fold is shown as B; Increase in comparison with non-treated of 1.2-1.7 fold is shown as C; D means that no increase compared with non-treated cells was detected in this method. The settings on record: increase in β-galactosidase enzyme activity vs non-treated cells, concentrations between 6 and 50 μM, 4 days incubation. As for the experimental part:
The capacity of the Compounds of the Disclosure to enhance mutated beta-galactosidase activity levels in GM1 fibroblasts was assayed as follows.
Fibroblasts homozygous for a GM1 gangliosidosis missense mutation (GM11473) (canine fibroblasts homozygous for the GM1 gangliosidosis missense mutation p.R60H equivalent to human p.R59H mutation) were purchased from Coriell Institute for Medical Research (Camden, N.J., USA).
Fibroblasts were seeded at 4×10^4 cells per well in 12-well cell culture plates in Dulbecco's Modified Eagle's Media (DMEM) supplemented with 10% of fetal bovine serum (FBS), 1% penicillin/streptomycin (P/S) (Thermo Fisher Scientific, Waltham, Mass., USA) and incubated at 37° C., 5% CO2 overnight for cell attachment. Subsequently, cells were incubated in the absence or presence of the compounds at the desired concentration for 4 days. After incubation, cells were washed twice with phosphate-buffered saline (“PBS”) and detached using Trypsin-EDTA solution (Sigma Aldrich, St. Louis, Mo., USA) to prepare cell pellets. The pellets were stored at −80° C. until activity assays were performed.
β-Galactosidase activity in cell lysates was measured by using 4-Methylumbelliferyl-β-D-galactopyranoside substrate (Sigma Aldrich, St. Louis, Mo., USA). Briefly, lysates were resuspended in 200 μL of 0.9% NaCl containing 0.01% triton X-100 lysis buffer to promote membrane disruption. The cell suspension was sonicated and centrifuged to remove insoluble materials. Then, lysates were mixed with 4-MU-β-D-galactopyranoside in 100 mM citrate buffer (pH=4) and 100 mM NaCl for 60 min at 37° C. The reaction was terminated by adding 100 mM glycine-NaOH buffer (pH=10.7). The liberated 4-MU was measured on a GloMax Discover plate reader (Promega, Madison, Wis., USA) with excitation at 340 nm and emission at 460 nm. Protein quantification was determined using Pierce BCA Protein Assay Kit (Thermo Fisher Scientific, Waltham, Mass., USA). Measurements were interpolated in a 4-MU standard curve and normalized by protein quantity. Enzyme activities were expressed in treated cells as X-fold increase in comparison with non-treated cells (X=1 represents no enhancement).
The capacity of the Compounds of the Disclosure to produce an increase in β-galactosidase enzyme activity in canine GM1 fibroblasts bearing p.R60H canine GLB1 mutation at concentrations between 6 and 50 μM is denoted as follows: • Increase in comparison with non-treated of >2.5 fold is shown as A. • Increase in comparison with non-treated of >1.7-2.5 fold is shown as B. • Increase in comparison with non-treated of 1.2-1.7 fold is shown as C. • D means that no increase compared with non-treated cells was detected in this method. • ND means “not determined.”

For `O=C(NCc1ccc2c(c1)OCCO2)c1ccc(Nc2nccc3ccc(Cl)cc23)cn1` [Example 28, 5-((7-Chloroisoquinolin-1-yl)amino)-N-((2,3-dihydrobenzo[b][1,4]dioxin-6-yl)methyl)picolinamide], the “Activity in GM11473 fibroblasts” value is on record as “B (Increase in comparison with non-treated of >1.7-2.5 fold is shown as B)”.
The result for `O=C(NCc1ccccc1)c1ccc(Nc2nccc3ccc(Cl)cc23)cn1` [Example 29, N-benzyl-5-((7-chloroisoquinolin-1-yl)amino)picolinamide] reads “A (Increase in comparison with non-treated of >2.5 fold is shown as A)”; that for `COc1ccc(CNC(=O)c2ccc(Nc3nccc4ccc(Cl)cc34)cn2)cc1` [Example 30, 5-((7-Chloroisoquinolin-1-yl)amino)-N-(4-methoxybenzyl)picolinamide], “B (Increase in comparison with non-treated of >1.7-2.5 fold is shown as B)”.
Take `COc1cccc(CNC(=O)c2ccc(Nc3nccc4ccc(Cl)cc34)cn2)c1` [Example 31, 5-((7-Chloroisoquinolin-1-yl)amino)-N-(3-methoxybenzyl)picolinamide]: the “Activity in GM11473 fibroblasts” value is recorded as “B (Increase in comparison with non-treated of >1.7-2.5 fold is shown as B)”.
Next, `COc1ccc(CNC(=O)c2ccc(Nc3nccc4ccc(Cl)cc34)cn2)cc1OC` [Example 32, 5-((7-Chloroisoquinolin-1-yl)amino)-N-(3,4-dimethoxybenzyl)picolinamide]: “C (Increase in comparison with non-treated of 1.2-1.7 fold is shown as C)”; `O=C(NC1CCc2ccccc2C1)c1ccc(Nc2nccc3ccc(Cl)cc23)cn1` (stereo not shown) [Example 34, 5-((7-Chloroisoquinolin-1-yl)amino)-N-(1,2,3,4-tetrahydronaphthalen-2-yl)picolinamide]: “A (Increase in comparison with non-treated of >2.5 fold is shown as A)”.
The result for `O=C(NCc1ccc2c(c1)OCCCO2)c1ccc(Nc2nccc3ccc(Cl)cc23)cn1` [Example 35, 5-((7-Chloroisoquinolin-1-yl)amino)-N-((3,4-dihydro-2H-benzo[b][1,4]dioxepin-7-yl)methyl)picolinamide] reads “C (Increase in comparison with non-treated of 1.2-1.7 fold is shown as C)”; that for `O=C(NCc1ccc2c(c1)CCO2)c1ccc(Nc2nccc3ccc(Cl)cc23)cn1` [Example 36, 5-((7-Chloroisoquinolin-1-yl)amino)-N-((2,3-dihydrobenzofuran-5-yl)methyl)picolinamide], “C (Increase in comparison with non-treated of 1.2-1.7 fold is shown as C)”; that for `O=C(NCc1ccc2c(c1)OCO2)c1ccc(Nc2nccc3ccc(Cl)cc23)cn1` [Example 37, N-(benzo[d][1,3]dioxol-5-ylmethyl)-5-((7-chloroisoquinolin-1-yl)amino)picolinamide], “D”.
Next, `O=C(NCCc1ccc2c(c1)OCCO2)c1ccc(Nc2nccc3ccc(Cl)cc23)cn1` [Example 38, 5-((7-Chloroisoquinolin-1-yl)amino)-N-(2-(2,3-dihydrobenzo[b][1,4]dioxin-6-yl)ethyl)picolinamide]: “D”; `O=C(NCc1ccc2c(c1)CCCO2)c1ccc(Nc2nccc3ccc(Cl)cc23)cn1` [Example 39, 5-((7-Chloroisoquinolin-1-yl)amino)-N-(chroman-6-ylmethyl)picolinamide]: “B (Increase in comparison with non-treated of >1.7-2.5 fold is shown as B)”; `COc1ccc2c(c1)CCC(NC(=O)c1ccc(Nc3nccc4ccc(Cl)cc34)cn1)C2` (stereo not shown) [Example 40, 5-((7-Chloroisoquinolin-1-yl)amino)-N-(6-methoxy-1,2,3,4-tetrahydronaphthalen-2-yl)picolinamide]: “B (Increase in comparison with non-treated of >1.7-2.5 fold is shown as B)”.
Consider `O=C(NCC1CCc2ccccc2C1)c1ccc(Nc2nccc3ccc(Cl)cc23)cn1` (stereo not shown) [Example 41, 5-((7-Chloroisoquinolin-1-yl)amino)-N-((1,2,3,4-tetrahydronaphthalen-2-yl)methyl)picolinamide], for which the “Activity in GM11473 fibroblasts” value is on record as “B (Increase in comparison with non-treated of >1.7-2.5 fold is shown as B)”.
`COc1ccc2ccnc(Nc3ccc(C(=O)NC4CCc5ccccc5C4)nc3)c2c1` (stereo not shown) [Example 45, 5-((7-Methoxyisoquinolin-1-yl)amino)-N-(1,2,3,4-tetrahydronaphthalen-2-yl)picolinamide]: the “Activity in GM11473 fibroblasts” value is given as “C (Increase in comparison with non-treated of 1.2-1.7 fold is shown as C)”.
The result for `COc1ccc2c(c1)CCC(NC(=O)c1ccc(Nc3nccc4ccc(OC)cc34)cn1)C2` (stereo not shown) [Example 46, N-(6-methoxy-1,2,3,4-tetrahydronaphthalen-2-yl)-5-((7-methoxyisoquinolin-1-yl)amino)picolinamide] reads “C (Increase in comparison with non-treated of 1.2-1.7 fold is shown as C)”; that for `COc1ccc2ccnc(Nc3ccc(C(=O)NCC4CCc5ccccc5C4)nc3)c2c1` (stereo not shown) [Example 47, 5-((7-Methoxyisoquinolin-1-yl)amino)-N-((1,2,3,4-tetrahydronaphthalen-2-yl)methyl)picolinamide], “B (Increase in comparison with non-treated of >1.7-2.5 fold is shown as B)”; that for `N#Cc1ccc2ccnc(Nc3ccc(C(=O)NC4CCc5ccccc5C4)nc3)c2c1` (stereo not shown) [Example 48, 5-((7-Cyanoisoquinolin-1-yl)amino)-N-(1,2,3,4-tetrahydronaphthalen-2-yl)picolinamide], “A (Increase in comparison with non-treated of >2.5 fold is shown as A)”.
The result for `N#Cc1ccc2ccnc(Nc3ccc(C(=O)NCc4ccc5nsnc5c4)nc3)c2c1` [Example 50, N-(benzo[c][1,2,5]thiadiazol-5-ylmethyl)-5-((7-cyanoisoquinolin-1-yl)amino)picolinamide] reads “C (Increase in comparison with non-treated of 1.2-1.7 fold is shown as C)”; that for `O=C(NCC(c1cccnc1)N1CCCC1)c1ccc(Nc2nccc3ccc(Cl)cc23)nc1` (stereo not shown) [Example 53, 6-((7-Chloroisoquinolin-1-yl)amino)-N-(2-(pyridin-3-yl)-2-(pyrrolidin-1-yl)ethyl)nicotinamide], “C (Increase in comparison with non-treated of 1.2-1.7 fold is shown as C)”.
Next, `O=C(NCc1ccc2c(c1)OCCO2)c1ccc(Nc2nccc3ccc(Cl)cc23)nc1` [Example 54, 6-((7-Chloroisoquinolin-1-yl)amino)-N-((2,3-dihydrobenzo[b][1,4]dioxin-6-yl)methyl)nicotinamide]: “C (Increase in comparison with non-treated of 1.2-1.7 fold is shown as C)”.
For `O=C(NCc1ccccc1)c1ccc(Nc2nccc3ccc(Cl)cc23)nc1` [Example 55, N-benzyl-6-((7-chloroisoquinolin-1-yl)amino)nicotinamide], the “Activity in GM11473 fibroblasts” value was “C (Increase in comparison with non-treated of 1.2-1.7 fold is shown as C)”.
The result for `COc1ccc(CNC(=O)c2ccc(Nc3nccc4ccc(Cl)cc34)nc2)cc1` [Example 56, 6-((7-Chloroisoquinolin-1-yl)amino)-N-(4-methoxybenzyl)nicotinamide] reads “D”.
